Measured values as given in ChEMBL document CHEMBL5357021, “Novel Triazolopyridine-Based BRD4 Inhibitors as Potent HIV-1 Latency Reversing Agents” (ACS Med Chem Lett, 2024).
Activity calls are given as the source filed them. The calls are words filed in the database; no cut-off is given here.

Tests used:
[1] = biological target: Bromodomain-containing protein 4 (Homo sapiens) (UniProt O60885); test: Inhibition of BRD4 in human J-Lat 10.6 cells contains HIV-1 long terminal repeats (LTR)-Tat-GFP assessed as increased RNA pol II enrichment in LTR at 10 uM incubated for 6 hrs by ChiP assay; type: cell-based
[2] = test system: Human immunodeficiency virus 1; test: Reversal of HIV-1 latency in CD4+ T-lymphoid J-Lat cells contains HIV-1 long terminal repeats (LTR)-Tat-GFP assessed as reactivation measured after 48 hrs by flow cytometry; type: functional, organism-based; details: Human immunodeficiency virus 1, J-Lat 10.6, 48 h
ACH-2 cell line = test: Cytotoxicity against human ACH-2 cell line cells infected with HIV-1 assessed as cell viability measured after 48 hrs by MTT assay; type: toxicity, cell-based; details: ach-2, 48 h
[3] = biological target: Bromodomain-containing protein 4 (Homo sapiens) (UniProt O60885); test: Inhibition of human BRD4 in J-lat 10.6 cells contains HIV-1 long terminal repeats (LTR)-Tat-GFP assessed as CDK9 expression at 2 to 50 uM measured after 24 hrs by Western blot analysis; type: cell-based; details: dose 2-50 µM
PBMC [4] = test: Immune hyper-activation in human PBMC cells assessed as CD69 expression at 10 uM measured after 48 hrs by flow cytometry; type: toxicity, cell-based
PBMC [5] = test: Effect on CXCR5 expression in human PBMC cells at 1 uM incubated for 48 hrs by flow cytometry; type: functional, cell-based
[6] = test system: Human immunodeficiency virus 1; test: Synergistic reversal of HIV-1 latency in human J-Lat 10.6 cells contains HIV-1 long terminal repeats (LTR)-Tat-GFP assessed as increase in GFP-positive cells by measuring combination index at 10 uM incubated for 48 hrs in presence of Prostratin by flow cytometry; type: functional
[7] = biological target: Bromodomain-containing protein 4 (Homo sapiens) (UniProt O60885); test: Inhibition of BRD4 phosphorylation in human J-Lat A10.6 cells contains HIV-1 long terminal repeats (LTR)-Tat-GFP at 2 to 50 uM measured after 24 hrs by Western blotting analysis; type: cell-based; details: J-Lat 10.6, dose 2-50 µM
[8] = test system: Human immunodeficiency virus 1; test: Reversal of HIV-1 latency in ACH-2 cell line contains complete HIV-1 provirus assessed as reactivation by measuring HIV-1 p24 antigen expression 5 uM measured after 48 hrs by ELISA; type: functional, organism-based
[9] = biological target: Bromodomain-containing protein 4 (Homo sapiens) (UniProt O60885); test: Inhibition of BRD4 BD1 domain (unknown origin) at 1 uM by HTRF assay
[10] = Cytotoxicity against human J-Lat A10.6 cells infected with HIV-1 assessed as cell viability measured after 48 hrs by MTT assay; type: toxicity, cell-based; details: j-lat 10.6, 48 h
PBMC [11] = test: Immune hyper-activation in human PBMC cells assessed as HLA-DR expression at 10 uM measured after 48 hrs by flow cytometry; type: toxicity, cell-based
J-Lat 10.6 [12] = test: Reversal of HIV-1 latency in human J-Lat10.6 cells contains HIV-1 long terminal repeats (LTR)-Tat-GFP assessed as reactivation measured at 10 uM after 48 hrs in presence of darunavir by flow cytometry; type: functional, cell-based; details: Human immunodeficiency virus 1
[13] = biological target: Bromodomain-containing protein 4 (Homo sapiens) (UniProt O60885); test: Inhibition of BRD4 in human J-Lat 10.6 cells contains HIV-1 long terminal repeats (LTR)-Tat-GFP assessed as increased CDK9 enrichment in LTR at 10 uM incubated for 6 hrs by ChiP assay; type: cell-based
PBMC [14] = test: Immune hyper-activation in human PBMC cells assessed as CD25 expression at 10 uM measured after 48 hrs by flow cytometry; type: toxicity, cell-based
[15] = biological target: Bromodomain-containing protein 4 (Homo sapiens) (UniProt O60885); test: Inhibition of human BRD4 in J-lat 10.6 cells contains HIV-1 long terminal repeats (LTR)-Tat-GFP assessed as phosphorylated CDK9 expression at 2 to 50 uM measured after 24 hrs by Western blot analysis; type: cell-based; details: dose 2-50 µM
[16] = biological target: Bromodomain-containing protein 4 (Homo sapiens) (UniProt O60885); test: Inhibition of human BRD4 in J-lat 10.6 cells contains HIV-1 long terminal repeats (LTR)-Tat-GFP assessed as cyclin T1 expression at 2 to 50 uM measured after 24 hrs by Western blot analysis; type: cell-based; details: dose 2-50 µM
J-Lat 10.6 [17] = test: Reversal of HIV-1 latency in human J-Lat10.6 cells contains HIV-1 long terminal repeats (LTR)-Tat-GFP assessed as reactivation measured at 10 uM after 48 hrs in presence of Efavirenz by flow cytometry; type: functional, cell-based; details: Human immunodeficiency virus 1
[18] = Cytotoxicity against human OM10.1 cells infected with HIV-1 assessed as cell viability measured after 48 hrs by MTT assay; type: toxicity, cell-based; details: om10.1, 48 h
[19] = Cytotoxicity against human non-infected J-Lat A10.6 cells assessed as cell death by CCK8 assay; type: toxicity, cell-based, J-Lat 10.6
[20] = biological target: Bromodomain-containing protein 4 (Homo sapiens) (UniProt O60885); test: Inhibition of human BRD4 recruitment in J-Lat A10.6 cells contains HIV-1 long terminal repeats (LTR) assessed as reduction of BRD4 and HIV-1 LTR interaction at 10 uM incubated for 6 hrs by CHIP assay; type: cell-based; details: J-Lat 10.6
PBMC [21] = test: Cytotoxicity against human PBMC cells assessed as cell viability measured after 48 hrs by MTT assay; type: toxicity, cell-based
[22] = Effect on CXCR4 expression in human PBMC cells at 10 uM incubated for 48 hrs by flow cytometry; type: toxicity, cell-based
[23] = Effect on CXCR5 expression in human PBMC cells at 10 uM incubated for 48 hrs by flow cytometry; type: toxicity, cell-based
[24] = biological target: Bromodomain-containing protein 4 (Homo sapiens) (UniProt O60885); test: Inhibition of BRD4 BD2 domain (unknown origin) at 1 uM by HTRF assay
PBMC [25] = test: Effect on CXCR4 expression in human PBMC cells at 1 uM incubated for 48 hrs by flow cytometry; type: functional, cell-based
J-Lat 10.6 [26] = test: Reversal of HIV-1 latency in human J-Lat10.6 cells contains HIV-1 long terminal repeats (LTR)-Tat-GFP assessed as reactivation measured at 10 uM after 48 hrs in presence of raltegravir by flow cytometry; type: functional, cell-based; details: Human immunodeficiency virus 1
[27] = Synergistic reversal of HIV-1 latency in human J-Lat 10.6 cells contains HIV-1 long terminal repeats (LTR)-Tat-GFP assessed as increase in GFP-positive cells by measuring combination index at 10 uM incubated for 48 hrs in presence of N1-hydroxy-N8-phenyloctanediamide by flow cytometry; type: functional, Human immunodeficiency virus 1

## Cc1nnc2ccc(-c3cc(NS(=O)(=O)c4ccc(F)cc4)ccc3Oc3ccc(F)cc3F)cn12
[1]
  inhibition: Active
[2]
  EC50: 1600 nM
ACH-2 cell line
  Activity: Non-Toxic
[3]
  inhibition: inactive
PBMC [4]
  Activity: Non-Toxic
PBMC [5]
  Activity: inactive
[6]
  CI: 0.1
[7]
  inhibition: Active
[8]
  Activity: Active
[9]
  inhibition: Active
[10]
  Activity: Non-Toxic
PBMC [11]
  Activity: Non-Toxic
J-Lat 10.6 [12]
  Activity: Active
[13]
  inhibition: Active
PBMC [14]
  Activity: Non-Toxic
[15]
  inhibition: Active
[16]
  inhibition: inactive
J-Lat 10.6 [17]
  Activity: Active
[18]
  Activity: Non-Toxic
[19]
  CC50: > 50000 nM
[20]
  inhibition: Active
PBMC [21]
  Activity: Non-Toxic
[22]
  Activity: Not Active
[23]
  Activity: Not Active
[24]
  inhibition: Active
PBMC [25]
  Activity: inactive
J-Lat 10.6 [26]
  Activity: Active
[27]
  CI: 0.1
